The source of these data is publication PMC4184567, “Glucuronidation of drugs in humanized UDP-glucuronosyltransferase 1 mice: Similarity with glucuronidation in human liver microsomes” (Pharmacology Research & Perspectives, 2013).

The subject of data set [1] is UGT (furosemide glucuronidation). As to the kind of experiment: Inhibition of furosemide glucuronidation in liver microsomes from hUGT1 mice. Format: in vitro ADME, humanized UGT1 mice. To be noted: male, Tg(UGT1A1*28)Ugt1−/− (hUGT1), C57BL/6 background, mouse (humanized UGT1), pH 7.4, probe furosemide; humanized UGT1 mice liver microsomes. From the text:
(§1) IC50 values were directly determined from linear regression.
(Liver microsomes are vesicles of endoplasmic reticulum, rich in cytochrome P450 enzymes.)

Data set [2] concerns furosemide glucuronidation in liver microsomes from hUGT1 mice. The description is as above. Format: in vitro ADME, humanized UGT1 mice. The note with it: hUGT1 mice liver microsomes, 500 μmol/L AZT.
Excerpt: as §1

For data set [3], the system named is UGT (furosemide glucuronidation). As to the kind of experiment: Inhibition of furosemide glucuronidation in human liver microsomes. The note with it: pH 7.4, probe furosemide. Format: in vitro ADME.
Excerpt: as §1

The subject of data set [4] is furosemide glucuronidation in human liver microsomes. The description is as above. Format: in vitro ADME. To be noted: 500 μmol/L AZT.
Excerpt: as §1

Data set [5] deals with furosemide glucuronidation in mouse liver microsomes. Put plainly: Inhibition of furosemide glucuronidation in regular mouse liver microsomes. Format: in vitro ADME. To be noted: regular mice liver microsomes, 500 μmol/L AZT.
Excerpt: as §1

The test system of data set [6] is UGT (furosemide glucuronidation). The data set is described as above. Format: in vitro ADME. To be noted: CD-1, mouse, pH 7.4, probe furosemide; regular mice liver microsomes.
Excerpt: as §1

Data set [7] concerns UGT activities in mouse liver microsomes. Details: method as in Court and Greenblatt [1997]. The note with it: ref Court and Greenblatt [1997]; cited from earlier work.
In data set [8] the test system is UGT activities in human liver microsomes. Details: method as in Court and Greenblatt [1997]. The note with it: ref Court and Greenblatt [1997]; cited from earlier work.
Data set [9] relates to human liver microsomes.
The test system of data set [10] is mouse liver microsomes.
The test system of data set [11] is liver microsomes from hUGT1 mice.
In data set [12] the test system is furosemide glucuronidation in liver microsomes from hUGT1 mice. The note with it: 0–0.5% BSA.
The test system of data set [13] is furosemide glucuronidation in human liver microsomes. The note with it: 0–0.5% BSA.
The subject of data set [14] is furosemide glucuronidation in liver microsomes from control mice. To be noted: 0–0.5% BSA.

The IC50 is the concentration that gives 50% inhibition. High values mean weaker potency, low ones greater potency. Consider `Cc1cn([C@H]2C[C@H](N=[N+]=[N-])[C@@H](CO)O2)c(=O)[nH]c1=O` [AZT, 3′-azido-3′-deoxythymidine], for which the IC50 at 30 min in data set [1], in [3] and in data set [6] was greater than 500 µM each time. Further, the “Inhibition of furosemide glucuronidation (in words)” value in data set [2], in data set [4] and in data set [5] was “did not inhibit” in each case.

Consider `C[C@H](CCC(=O)NCCC[N+](C)(C)CCCS(=O)(=O)[O-])[C@H]1CC[C@H]2[C@@H]3[C@H](O)C[C@@H]4C[C@H](O)CC[C@]4(C)[C@H]3C[C@H](O)[C@]12C` [CHAPS], for which the “Increase of UGT activity by detergent” value in data set [7] is given as 439–563%. In addition, in [8], the “Increase of UGT activities by detergent” value is on record as 9–66%.

Turning to `C[C@]12CC[C@@H]3c4ccc(O)cc4CC[C@H]3[C@@H]1CC[C@@H]2O` [estradiol], the IC50 at 30 min came to 32.5 µM in [1], 31.7 µM in data set [3] and 111 µM in [6].

With `NCCc1c[nH]c2ccc(O)cc12` [serotonin], the IC50 at 30 min in data set [1] is 610 µM; in [3], greater than 5000 µM; in [6] it was 450 µM.

With `CN1CCN(CCCN2c3ccccc3Sc3ccc(C(F)(F)F)cc32)CC1` [trifluoperazine], the N-glucuronide formation result was “observed” in data set [9], “not detected” in data set [10] and “lesser but detectable amount” in data set [11].

For the compound bovine serum albumin [BSA], the “Effect of BSA on furosemide glucuronidation” value in data set [12] is recorded as “similarly observed”; in [13], “concentration-dependently activated”; in data set [14] it was “similarly observed”.
